Where no end group is shown, it is not given here.
What was measured:
[1] = test system: HUVE cells; assay: Cell viability assay (apoptosis and necrosis, Annexin V / propidium iodide) of patterned HUVE cells; format: cell-based, human; conditions: after 7 days of cell adhesion
From the text: Retaining cell viability after cell adhesion is essential for cell biology studies and biomedical applications such as cell-based sensors and drug screening microarrays. The viability of cells patterned on the three model platforms were studied with an apoptosis assay noted in EXAMPLE section. FIGS. 10A-F show fluorescence images of HUVE cells on cell patterning platforms immobilized with (a) fibronectin, (b) REDVY peptide, and (c) KREDVY peptide after 7 days of cell adhesion. Cells on the platform with chemically bound fibronectin appeared apoptotic and necrotic (FIGS. 10A and 10D). This might be caused by the competitive adhesion of multiple cells on a limited surface area of the gold square-based cell adhesion regions, hindering individual cell growth and survival. […] Because the conformation of fibronectin protein on the gold square-based cell adhesion regions varies from site to site, the degree of interactions of HUVE cells with the binding peptides of the protein and the number of cells attached on each site can differ from pattern to pattern.
VYBRANT apoptosis assay allows for the simultaneous visualization of viable, necrotic, and apoptotic cells on substrates. Necrosis results from direct cell damage; apoptosis is genetically-programmed cell death in which cells effectively commit suicide. […] The substrates were incubated with 100 μL of Annexin V and 2 μL of PI solution for 15 minutes at room temperature, washed twice with binding buffer, and imaged with a fluorescence microscope.

[2] = test system: HUVE cells; assay: Quantification of HUVE cell adhesion on gold-patterned silicon substrates (cell coverage, single cell ratio); format: cell-based, human; conditions: HUVE cells cultured 18 hours; 20 μm gold squares; 378 cell adhesion regions
Procedure: Thus, quantification of single cell coverage is necessary for understanding the capability of this peptide-mediated cell adhesion process. HUVE cells were cultured on fibronectin and peptide modified platforms in standard culture media for 18 hours and stained with DAPI for cell nuclei to emit blue fluorescence. Fluorescence microscopy was used to identify single or multiple cells on gold square-based cell adhesion regions. Cell coverage and single cell population for each type of surface were quantified from 378 gold square-based cell adhesion regions (3 samples×2 areas of interest with 63 cell adhesion regions per area). Cell coverage was calculated from the ratio of gold square-based cell adhesion regions covered with cells to the total number of the cell adhesion regions in the area of interest, and single cell ratio was obtained by dividing the number of gold square-based cell adhesion regions covered with single cells to the total number of cell adhesion regions covered with cells (single or multiple). Exemplary images of adhered cells on three model platforms are shown in FIGS. 9A-D, and quantification results are shown in Table 1. As expected, the fibronectin and KREDVY modified surfaces have higher cell coverage than the REDVY modified surface due to larger number binding domains available on the former two surfaces than on the latter. Both peptide modified surfaces have much higher single cell ratios than the fibronectin modified surface. Clearly, the KREDVY modified surface is the best candidate for single cell patterning in light of both cell coverage and single cell ratio. As a side note, for electrical recording, it is easy to distinguish between single and multiple cells, allowing either type of site to be observed selectively.
HUVE cells were cultured in EGM-2 medium supplemented with bovine brain extract (BBE), hydrocortisone, hFGF-B, VEGF, R3-IGF-1, ascorbic acid, heparin, FBS, hEGF, and GA-1000. The final serum concentration was 2%. Cells were seeded on culture flasks at passage 1 and the medium was changed after 24 hours. At 70% confluency, cells were subcultured as follows. After aspiration from culture flasks, cells were rinsed with 2-3 ml of HEPES-BSS buffer solution for 3 times, followed by incubation with 2 ml of trypsin/EDTA solution. The trypsinization process continued until about 90% of the cells were collected. After cells were released, the trypsin was neutralized in the flask with 4 ml of TNS, and the detached cells were transferred to a 15-ml sterile centrifuge tube. The harvested cells were centrifuged at 220 g for 5 minutes. Cells were diluted in growth medium. Cells at a concentration of 1.5×10^5 cells/ml were seeded on the substrates. The substrates were incubated for 18 hours before fixation with a mixture of 2% glutaraldehyde and paraformaldehyde in phosphate buffer solution for optical microscopy and with 4% paraformaldehyde for fluorescence microscopy.

[3] = test system: RAW264.7 cells (murine monocyte/macrophage); assay: DIC reflectance microscopy of macrophage morphology after LPS exposure; format: cell-based; conditions: LPS 0.1, 1.0 and 10 μg/mL, 21 hours
From the text: Cell-cultured surfaces were examined with a differential interference contrast (DIC) reflectance microscope (Nikon E800 Upright Microscope, NY, N.Y.) equipped with DIC-20× (N.A. 0.46) and DIC-50× (N.A. 0.8) objectives. Images were acquired with a Coolsnap camera (series A99G81021, Roper Scientific Inc., AZ, USA) attached to the microscope and a computer. […] FIGS. 12A, 12C, and 12E are optical DIC images of electrodes with a single cell, double cells, and triple cells, respectively.

[4] = test system: RAW264.7 cells (murine monocyte/macrophage); assay: Synchrotron FTIR spectromicroscopy of patterned macrophage cells exposed to LPS; format: cell-based; conditions: for peak of amide I group post-exposure: single cells, eight electrodes of two substrates
From the text: Cells in an isolated state (e.g., one cell on each microelectrode) generally respond differently to an external stimulus than when they are in a communicating state (e.g., a cluster of cells on a microelectrode).
IR spectra and optical reflectance DIC images were acquired from cells on the patterned substrates with single or a group of macrophage cells on each electrode both before and after cellular exposure to LPS. Synchrotron FTIR spectra were acquired from cell-patterned surfaces with a Nicolet Magna 760 FTIR bench and a Nicolet Nic-Plan™ IR microscope equipped with a computer-controlled x-y-z sample stage (via Nicolet Atlμs™ and OMNIC software) and an MCT-A detector at Beamline 1.4.3 of the Advanced Light Source (ALS) in Lawrence Berkeley National Laboratory, Berkeley. C A. Martin, M. C. and McKinney, R. W., Proceed. Mater. Res. Soc. 524, 11-15, 1998; C A. Martin, M. C. and McKinney, R. W., Proceedings of the Low Energy Electrodynamics in Solids, '99 Conference, Pécs, Hungary, Special Issue of Ferroelectrics, 249, 1-10, 2001. In order to align the incident IR beam onto the substrate, an IR map (with 2-10 μm step size in x-y plane) was acquired around a gold electrode for a full IR range of 400-10,000 wave numbers. Under this condition, the whole spectrum appeared as a broad peak and an intensity profile was given for the mapped region. The x, y positions were adjusted so that the highest intensity region of the beam was aligned with the center of the gold electrode. The samples were measured at wave numbers of 650-10,000 cm^−1 using an XT-KBr beamsplitter and an MCT detector. The synchrotron infrared light is focused to a diffraction-limited spot size with a wavelength-dependent diameter of approximately 3-10 μm across the mid-IR range of interest. Carr, G. L. Review of Scientific Instruments 72, 1613-1619, 2001; and Dumas, P., et al., Faraday Discussions 126, 289-302, 2004. An on-stage temperature controlled mini incubator was used to maintain a proper environment for cellular analysis. Prior to infrared analysis, dead and loosely bound cells were removed from the substrate by three PBS washes (to eliminate the possible interference of dead and loosely bound cells to the real-time signals generated by live cells), the cell culture medium was replaced with fresh sterile medium, and the substrate covered with a layer of the medium was transferred to the mini incubator. The spectra were acquired in less than 10 minutes following the sample transfer to ensure cell viability and to minimize possible interference from environmental changes. Synchrotron FTIR spectra of 128 scans at a resolution of 8 cm^−1 were acquired from individual electrodes patterned with cells. Background signals were collected from the silicon oxide surface of the same substrate right before the data collection. […] All spectra were baseline-corrected and normalized to account for the continuous decay of the synchrotron beam in the storage ring. An appropriately scaled water vapor spectrum was subtracted from the spectra of cells. The spectra obtained with conventional FTIR were acquired from cell-patterned surfaces using a Thermo-Electron Nexus 870 bench and a Thermo-Electron Continuum infrared microscope with an MCT-A detector at Beamline 1.4.4 of the ALS under the same conditions set for the synchrotron measurements, except that an aperture size of 90 μm×90 μm were employed to maximize the signal intensity.

[5] = LPS 1 μg/mL, 21 hours, 10 μm×10 μm electrodes, mean±S.D. of four electrodes

Substance | cell apoptosis / viability (Annexin V) [1] | cell necrosis (propidium iodide) [1] | % Cell Coverage [2] [%] | % Ratio of single-cell sites/total cell sites [2] [%] | cell morphology [3] | Amide I wave number, Double cells [4, 5] [cm⁻¹] | Amide I wave number, Single cell [4, 5] [cm⁻¹] | Amide I wave number, Triple cells [4, 5] [cm⁻¹] | peak of amide I group post-exposure ([4]; 0.1 μg/mL LPS, 21 hours) [cm⁻¹] | peak of amide I group post-exposure ([4]; 1 μg/mL LPS, 21 hours) [cm⁻¹] | peak of amide I group post-exposure ([4]; 10 μg/mL LPS, 21 hours) [cm⁻¹] | shift in wave number ([4]; single-cell platform, LPS 1.0 μg/mL) [cm⁻¹]
Arg-Glu-Asp-Val-Tyr (REDVY) | became apoptotic at day 7 | No cell necrosis was observed | 56.28 ± 3.03 | 62.25 ± 3.23 |  |  |  |  |  |  |  | 
Fibronectin | apoptotic | necrotic | 83.47 ± 3.20 | 27.41 ± 3.64 |  |  |  |  |  |  |  | 
KREDVY | remained viable throughout 7 days | No cell necrosis was observed | 78.40 ± 3.96 | 72.17 ± 2.49 |  |  |  |  |  |  |  | 
lipopolysaccharide [LPS] |  |  |  |  | enlarged, dendritic-like shape | 1665 ± 2.6 | 1661 ± 1.6 | 1658 ± 3.4 | 1659 ± 1.7 | 1661 ± 1.0 | 1676 ± 1.0 | 30

— patent publication US10119958B2, “Arrays and methods for guided cell patterning” (University of Washington, priority 2007, dated 2018)
